Reference: patent US20030109035A1, “Method of forming vertebrate pancreas in vitro” (priority 2000, published 2003)

Legend:
[1] = system: Xenopus embryos at developmental stage 22 to 32; settings: cited from earlier work
whole embryos = assay: Retinoic acid treatment of whole embryos from blastula to gastrula; type: in vivo, Xenopus
Excerpt: Moreover, there has been a report regarding the effect of retinoic acid to the endoderm of Xenopus embryo (Zeynali, B. and Dixon, K. E.; Dev. Genes. Evol. 208, 318-326, 1998). […] The present inventors conducted retinoic acid treatment to the whole embryos from the period of blastula to gastrula. […] However, the physical relationship of each of the endodermal organs was abnormal and the endodermal organs were formed aggregately in the anterior and posterior axis direction.

insulin and XlHbox8 = assay: RT-PCR expression of pancreas-specific genes in explants; type: cell-based, Xenopus laevis; settings: treated with one agent alone, cultured three days
Excerpt: C., and the expression of insulin that is a pancreas-specific gene (Henry, G. L. et al.; Development 122, 1007-1015, 1996) and XlHbox8 (Lemaire, P. et al.; Development 125, 2371-2380, 1998) were examined by the method as previously described (Yokota, C. et al.; J. Biochem. 123, 339-346, 1998). […] EF-1α (elongation factor 1α) was used as a loading control. The combination of primers of each gene in PCR reaction that were used is as follows: insulin [insulin-[…] No. 1), insulin-[…] No. 2)], […] No. 3), […] No. 4)], […] No. 5), and […] No. 6)]. Seventy-six μl of DDW, 10 μl of 10×Ex buffer, 8 μl of 2.5 mM dNTPs mix, 0.5 μl of 5[…] 0.5 μl of 100 μM of each of the above-mentioned primers were added to 5 μl of the above-mentioned cDNA (20 ng/μl), and PCR reaction was conducted with the total amount of 100 μl. The thermal cycle program, which is a cycle to denature for four minutes at 94° C. only at the first time, followed by thermal denaturation for 30 seconds at 94° C., […], was repeated for 23 to 30 times. Ultimately, annealing was conducted for nine minutes at 72° C. […] As a negative control, EF-1α wherein RT-PCR was conducted under a condition where the reverse transcription factor had been eliminated was used.

[2] = system: blastopore upper lip cell of Xenopus early gastrula; settings: cited from earlier work
[3] = system: pieces of presumptive ectoderm of Xenopus late blastula; assay: Simultaneous and continuous treatment of pieces of presumptive ectoderm with activin/retinoic acid, tissues that differentiate; type: cell-based, Xenopus laevis; settings: continuous, activin 100 ng/ml, retinoic acid 0 M, 10 samples
Method: (§1) The dorsal lymph sacs of adult male and female Xenopus laevis were each injected with 600 IU of hCG (human chorionic gonadotropin; Gestron; Denka Seiyaku, Japan), and fertilized eggs were obtained by mating these Xenopuses. These late blastulas [developmental stage 9] were dejellied in Steinberg's solution (SS: 58.00 mM NaCl, 0.67 mM KCl, 0.34 mM Ca(NO3)2, 0.83 mM MgSO4, 3.00 mM HEPES and 100 mg/l kanamycin sulfate; pH 7.4) containing 4.5% cysteine hydrochloride (pH 7.8), and the vitelline membranes were removed in the Steinberg's solution by using a pair of watchmaker's tweezers. The presumptive ectoderm portion of Xenopus late blastula thus obtained was cut into a size of 0.4 mm×0.4 mm by using a tungsten needle.
(§2) Human recombinant activin A (Ajinomoto Co., Inc.) was dissolved in Steinberg's solution containing 0.1% bovine serum albumin (BSA) to a concentration of 100 ng/ml, and an activin solution was prepared.
Based on the results from Example 2, since the effect of retinoic acid treatment was found in the differential pattern of mesodermal tissues, it can be considered that retinoic acid acted in the period when the fate of the mesoderm is determined to each mesodermal tissue (notochord, muscle, pronephric tubule and the like, for example). […] C. for 10 days (see continuous treatment in FIG. 1). These explants that had been cultured were stained in the same manner as in Example 2, and the tissues that differentiated were observed and examined by using a light microscope.

Xenopus animal cap cells = settings: cited from earlier work
[4] = system: pieces of presumptive ectoderm of Xenopus late blastula; assay: Simultaneous one-hour treatment of pieces of presumptive ectoderm with activin/retinoic acid, tissues that differentiate (light microscopy); type: cell-based, Xenopus laevis
Method: as §1, §2
C. (see temporary treatment in FIG. 1). These explants that had been cultured were fixed with Bouin's solution, followed by dehydration treatment of a series of ethanol and xylene, and these explants were embedded in paraffin and sliced into 6 μm sections. These sections were stained with hematoxylin and eosin, and the tissues that differentiated were observed and examined under a light microscope. Further, the untreated pieces of presumptive ectoderm were also observed and examined in the same manner by using a light microscope.

[5] = system: pieces of presumptive ectoderm of Xenopus late blastula; assay: Time lag treatment of pieces of presumptive ectoderm with activin then retinoic acid, tissues that differentiate; type: cell-based, Xenopus laevis; settings: activin 100 ng/ml alone 1 h, 65 samples
Method: as §1
A time lag was provided between the treatment with activin and treatment with retinoic acid, so that the action of retinoic acid can be received for the first time, after the differentiation to dorsal mesoderm/anterior endoderm had been determined by action of activin. […] After the elapse of the time lag, the pieces of presumptive ectoderm were left at rest in retinoic acid solution at 10^−4 M for one hour, washed two times with Steinberg's solution containing 0.1% BSA, and then cultured in Steinberg's solution containing 0.1% BSA at 20° C. for ten days (see time lag treatment in FIG. 1). These explants that had been cultured were stained in the same manner as described in Example 2, and the tissues that differentiated were observed and examined under a light microscope.

[6] = activin 100 ng/ml, retinoic acid 0 M, 1 h, 31 samples

Question: Which results are given for `CC1=C(/C=C/C(C)=C/C=C/C(C)=C/C(=O)O)C(C)(C)CCC1` [retinoic acid, All-trans retinoic acid]?
Answer: expression of XlHbox8 [1]: no effect is found in the expression of XlHbox8; formation of pancreas [1]: formed normally; morphology of the digestive organs [1]: the morphology of the digestive organs such as intestines, liver and stomach become abnormal; morphology of treated embryos (whole embryos): head-deficient embryos; induction of pancreas in vivo (whole embryos; whole embryos treated from blastula to gastrula): pancreas was not induced specifically in vivo; expression of insulin and XlHbox8 (insulin and XlHbox8): expression of these genes was not found; pancreas formation [2]: enables pancreas formation with high efficiency

Question: With “activin: Human recombinant activin A (Ajinomoto Co., Inc.)” as the molecule, how does the “Atypical epidermis differentiated in explants” value [3] read?
Answer: 0(0) number (percentage)

Question: What about the “Cartilage differentiated in explants” value [3] of the same molecule?
Answer: 1(10) number (percentage)

Question: And the “Coelomic epithelium differentiated in explants” value [3]?
Answer: 4(40) number (percentage)

Question: And the “Epidermis differentiated in explants” value [3]?
Answer: 9(90) number (percentage)

Question: What about the “Intestinal epithelium differentiated in explants” value [3] of the same molecule?
Answer: 0(0) number (percentage)

Question: What about the “Mesenchyme differentiated in explants” value [3] of the same molecule?
Answer: 9(90) number (percentage)

Question: What about the “Muscle differentiated in explants” value [3] of the same molecule?
Answer: 10(100) number (percentage)

Question: What about the “Neural tissue differentiated in explants” value [3] of the same molecule?
Answer: 10(100) number (percentage)

Question: What about the “Notochord differentiated in explants” value [3] of the same molecule?
Answer: 3(30) number (percentage)

Question: What about the “Pancreas differentiated in explants” value [3] of the same molecule?
Answer: 0(0) number (percentage)

Question: And the “Pharyngeal epithelium differentiated in explants” value [3]?
Answer: 5(50) number (percentage)

Question: And the “Pronephric tubule differentiated in explants” value [3]?
Answer: 0(0) number (percentage)

Question: And the “Yolk-rich cell differentiated in explants” value [3]?
Answer: 5(50) number (percentage)

Question: What about the “induction of mesodermal tissues” value (Xenopus animal cap cells) of the same molecule?
Answer: induces most mesodermal tissues such as notochord, muscle, mesenchyme and coelomic epithelium, dose-dependently

Question: What about the “Atypical epidermis differentiated in explants” value [4, 6] of the same molecule?
Answer: 0(0) number (percentage)

Question: And the “Cartilage differentiated in explants” value [4, 6]?
Answer: 5(16) number (percentage)

Question: What about the “Coelomic epithelium differentiated in explants” value [4, 6] of the same molecule?
Answer: 15(48) number (percentage)

Question: What about the “Epidermis differentiated in explants” value [4, 6] of the same molecule?
Answer: 30(97) number (percentage)

Question: What about the “Intestinal epithelium differentiated in explants” value [4, 6] of the same molecule?
Answer: 0(0) number (percentage)

Question: And the “Mesenchyme differentiated in explants” value [4, 6]?
Answer: 31(100) number (percentage)

Question: And the “Muscle differentiated in explants” value [4, 6]?
Answer: 25(81) number (percentage)

Question: And the “Neural tissue differentiated in explants” value [4, 6]?
Answer: 12(39) number (percentage)

Question: What about the “Notochord differentiated in explants” value [4, 6] of the same molecule?
Answer: 4(13) number (percentage)

Question: What about the “Pancreas differentiated in explants” value [4, 6] of the same molecule?
Answer: 0(0) number (percentage)

Question: What about the “Pharyngeal epithelium differentiated in explants” value [4, 6] of the same molecule?
Answer: 12(39) number (percentage)

Question: What about the “Pronephric tubule differentiated in explants” value [4, 6] of the same molecule?
Answer: 7(23) number (percentage)

Question: What about the “Yolk-rich cell differentiated in explants” value [4, 6] of the same molecule?
Answer: 18(58) number (percentage)

Question: And the tissues that differentiated ([4]; treated only with activin (100 ng/ml))?
Answer: dorsal mesodermal and anterior endodermal tissues such as notochord, muscle, pharyngeal epithelium and the like differentiated

Question: And the “Atypical epidermis differentiated in explants” value [5]?
Answer: 0(0) number (percentage)

Question: And the “Cartilage differentiated in explants” value [5]?
Answer: 12(18) number (percentage)

Question: What about the “Coelomic epithelium differentiated in explants” value [5] of the same molecule?
Answer: 28(43) number (percentage)

Question: What about the “Epidermis differentiated in explants” value [5] of the same molecule?
Answer: 59(91) number (percentage)

Question: What about the “Intestinal epithelium differentiated in explants” value [5] of the same molecule?
Answer: 3(5) number (percentage)

Question: What about the “Mesenchyme differentiated in explants” value [5] of the same molecule?
Answer: 59(91) number (percentage)

Question: What about the “Muscle differentiated in explants” value [5] of the same molecule?
Answer: 37(57) number (percentage)

Question: What about the “Neural tissue differentiated in explants” value [5] of the same molecule?
Answer: 32(49) number (percentage)

Question: And the “Notochord differentiated in explants” value [5]?
Answer: 34(52) number (percentage)

Question: What about the “Pancreas differentiated in explants” value [5] of the same molecule?
Answer: 0(0) number (percentage)

Question: What about the “Pharyngeal epithelium differentiated in explants” value [5] of the same molecule?
Answer: 37(57) number (percentage)

Question: And the “Pronephric tubule differentiated in explants” value [5]?
Answer: 5(8) number (percentage)

Question: And the “Yolk-rich cell differentiated in explants” value [5]?
Answer: 29(45) number (percentage)

Question: What about the “expression of insulin and XlHbox8” value (insulin and XlHbox8) of the same molecule?
Answer: induced only a little
